Among the data in patent US20100015058A1, “RADIOLABELED BBN-RGD HETERODIMERS FOR CANCER TARGETING” (STANFORD UNIVERSITY, priority 2008, published 2010) are MDA-MB-435 tumor uptake and tissue uptake values, retold here.

The tissue uptake is the share of the injected amount in each gram of the tissue.

SMILES strings stand for the structures.

One series has as its system MDA-MB-435 tumor. Kind of series: Small-animal PET of MDA-MB-435 tumor-bearing mice. Conditions: female, athymic nude, mouse, in vivo, iv.
Another series is described as follows: in vivo. The conditions noted are these: BALB/c, mouse, iv, 370 kBq, total radioactivity, pancreatic uptake. Set-up: species or system mice. As to the method: All mice were sacrificed at 1 h after injection of the tracer. Blood, tumor, and major organs and tissues were collected and wet-weighed. Stomach and intestines were cleaned of their contents in this experiment. The radioactivity in the tissue was measured using a g-counter (Packard). The results were presented as percentage injected dose per gram of tissue (% ID/g). Values were expressed as mean 6 SD (n=4/group).

Experimental for MDA-MB-435 tumor: The MDA-MB435 tumor model was established by orthotopic injections of 5×10^6 cells into the right mammary fat pad of female athymic nude mice. […] The mice were subjected to microPET studies when the tumor volume reached 100-300 mm^3 (2-3 weeks for MDA-MB-435, and 4-5 wk for T47D).
For static PET, 5-min scans were acquired at 30 min, 1 h, and 2 h after injection. For dynamic PET, 30-min scans (1×30 s, 4×1 min, 1×1.5 min, 4×2 min, 5×3 min; total 15 frames) were started 1 min after injection, and two 5-min static PET images were also acquired at 1 h and 2 h after injection. The images were reconstructed using a two-dimensional ordered subsets expectation maximum (OSEM) algorithm and no correction was applied for attenuation or scatter. […] For each small-animal PET scan, regions of interest (ROIs) were drawn over the tumor, normal tissue, and major organs using vendor software ASI Pro 5.2.4.0 on decay-corrected whole-body coronal images. The maximum radioactivity concentrations (accumulation) within a tumor or an organ were obtained from mean pixel values within the multiple ROI volume, and were converted to megabecquerels per milliliter per minute using a conversion factor. These values were then divided by the administered activity to obtain (assuming a tissue density of 1 g/ml) an image ROI-derived percent injected dose per gram (% ID/g).
Quantification of tumor and major organ activity accumulation in the microPET scans was realized by measuring the regions of interest (ROIs) that encompassing the entire organ on the coronal images.

Take `CSCC[C@H](NC(=O)[C@H](CC(C)C)NC(=O)[C@H](Cc1c[nH]cn1)NC(=O)CNC(=O)[C@@H](NC(=O)[C@H](C)NC(=O)[C@H](Cc1c[nH]c2ccccc12)NC(=O)[C@H](CCC(N)=O)NC(=O)CCCCCNC(=O)CC[C@H](NC(=S)Nc1ccc(C[C@H]2CN(CC(=O)O)CCN(CC(=O)O)CCN2CC(=O)O)cc1)C(=O)NCCCC[C@@H]1NC(=O)[C@@H](Cc2ccc(O)cc2)NC(=O)[C@H](CC(=O)O)NC(=O)CNC(=O)[C@H](CCCNC(=N)N)NC1=O)C(C)C)C(N)=O` [^64Cu-NOTA-RGD-BBN, metal not drawn]: the figures for the MDA-MB-435 tumor uptake with MDA-MB-435 tumor (1 h) and in the series with MDA-MB-435 tumor (2 h) were 1.84 ± 0.44 % ID/g and 1.47 ± 0.19 % ID/g, respectively. The tissue uptake at 1 h in the series “in vivo” is 7.03 ± 1.96 %ID/g.
